Laboratory results as given in paper PMC9231089, “Sorafenib Chemosensitization by Caryophyllane Sesquiterpenes in Liver, Biliary, and Pancreatic Cancer Cells: The Role of STAT3/ABC Transporter Axis” (Pharmaceutics, 2022).
Structures can show the parent of a compound that is named as a salt.

Experiments:
Bx-PC3 cells = experiment: Wound healing assay (cell migration); type: cell-based, human; details: for increase of wound area: substance in combination with sorafenib 10 µg/mL, reference and time not stated
Experimental: To evaluate the effect of caryophyllane sesquiterpenes, both alone and in combination with sorafenib, on the cell migration rate, the wound healing assay was performed. Bx-PC3 cells were seeded in 24-well plate at a density of 2.5 × 10^5 cells/well. After 24 h, the wound was created by scratching the well bottom with a 100 μL pipette tip, then the cells were treated under the scheduled conditions and images were captured at 0, 4, and 72 h using a Cytation 1 Cell Imaging Multi-Mode Reader. […] Results were expressed as wound area percentage with respect to that of the same well at zero time. The positive controls were also included.

Mz-ChA-1 [1] = experiment: Combination assay with sorafenib (MTT), Mz-ChA-1; type: cell-based, human;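 for increase of sorafenib cytotoxicity in combination: percent increase of sorafenib cell viability inhibition versus sorafenib alone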
Experimental: (§1) Suitable vehicle controls were also included.
(§2) The type of interaction (synergistic, additive, or antagonistic) among sorafenib and test substances or positive controls was evaluated by measuring the reversal ratio value (RR), combination index (CI), and isobolographic analysis (IB), as previously described.

phospho(Tyr705)-STAT3 = experiment: Western blotting of STAT3 phosphorylation in Bx-PC3 cells; type: cell-based, human; details: for increase of STAT3 phosphorylation at tyrosine 705: substance alone, sorafenib and sesquiterpenes 10 μg/mL, verapamil/MK571 1 μg/mL, normalized to total STAT3; for reduction of phospho(Tyr705)-STAT3 with respect to sorafenib: substance in combination with sorafenib 10 μg/mL
Experimental: as §1
Confluent cells were seeded in 6-well plates (5 × 10^5 cells/well), treated as described above, then harvested by centrifugation and washed in PBS. After lysis with a suitable buffer, the Western blotting analysis was carried out, according to previously published methods. […] The levels of phospho(Tyr705)-STAT3 were normalized against total STAT3 ones.

HepG2 [2] = experiment: Combination assay with sorafenib (MTT), HepG2; type: cell-based, human; details: for increase of sorafenib cytotoxicity in combination: verapamil/MK571 1 µg/mL or sesquiterpenes 10 µg/mL;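 for increase of sorafenib cytotoxicity in combination: percent increase of sorafenib cell viability inhibition versus sorafenib alone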
Experimental: as §1, §2

Bx-PC3 [3] = experiment: Combination assay with sorafenib (MTT), Bx-PC3; type: cell-based, human;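 for increase of sorafenib cytotoxicity in combination: percent increase of sorafenib cell viability inhibition versus sorafenib alone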
Experimental: as §1, §2

Mz-ChA-1 [4] = experiment: MTT cytotoxicity assay, substances alone, Mz-ChA-1; type: cell-based, human; details: Mz-ChA-1
Experimental: as §1
(§3) The effect of the treatments on cell viability was measured by the MTT assay as previously described. A higher than 30% reduction of cell viability was considered as a significant cytotoxic effect.

[5] = test system: noncancerous H69 cholangiocytes; experiment: MTT cytotoxicity assay (tolerability), substances alone, H69; type: cell-based, human; details: Homo sapiens; H69 noncancerous cholangiocytes; substance alone; 4 h exposure + 72 h recovery; read-out: IC50 (CL)
Experimental: as §1, §3

MRP1/2 [6] = experiment: ABC-mediated drug efflux assay, calcein-AM accumulation, Mz-ChA-1 cells; type: cell-based, human; details: 2 h pre-treatment, sesquiterpenes 10 μg/mL, vs control
Experimental: (§5) Fluorescence was measured at excitation and emission wavelengths of 485 nm and 535 nm for both probes, using a Cytation 1 Cell Imaging Multimode Reader (Biotech, Santa Clara, CA, USA). Results were normalized to viable cells and expressed as percentage of the negative control.

[7] = test system: noncancerous H69 cholangiocytes; experiment: Combination assay with sorafenib (MTT), tolerability in H69; type: cell-based, human; details: sesquiterpene 10 μg/mL combined with sorafenib (protective effect at sorafenib 10 μg/mL)
Experimental: as §1, §2

MRP1/2 [8] = experiment: ABC-mediated drug efflux assay, calcein-AM accumulation, HepG2 cells; type: cell-based, human; details: 2 h pre-treatment, sesquiterpenes 10 μg/mL, vs control
Experimental: as §5

[9] = set-up: method as in PMID 33081075; details: European Food Safety Authority; cited from earlier work
MRP1 [10] = experiment: Immunofluorescence analysis in Bx-PC3 cells, MRP1; type: cell-based, human; details: substance 10 µg/mL in combination with sorafenib 10 µg/mL
Experimental: as §1
(§4) The analysis was performed according to previously published methods. Confluent cells were seeded in 24-well plates (2 × 10^4 cells/well), allowed to adhere overnight, then treated as described above. After treatment, cells were fixed in pure methanol and washed with 4% bovine serum albumin (BSA) and PBS + Tween 20 (PBS-T) for 1 h. […] The expression and localization of Pgp, MRP1, and MRP2 pumps into cells were analyzed by using a Cytation 1 Cell Imaging Multimode Reader (Biotech, USA).

MRP1 [11] = experiment: RT-qPCR gene expression in Bx-PC3 cells, MRP1; type: cell-based, human; details: substance in combination with sorafenib, given for MRP1 and MRP2 together
Text: as §1

HepG2 [12] = experiment: MTT cytotoxicity assay, substances alone, HepG2; type: cell-based, human; details: HepG2
Experimental: as §1, §3

Bx-PC3 [13] = experiment: MTT cytotoxicity assay, substances alone, Bx-PC3; type: cell-based, human
Experimental: as §1, §3

MRP2 [14] = experiment: RT-qPCR gene expression in Bx-PC3 cells, MRP2; details: substance in combination with sorafenib, given for MRP1 and MRP2 together
Experimental: (§6) Confluent cells were treated with the test substances, both alone or in combination with the anticancer drug, for 4 h, then washed and incubated for a further 72 h (Figure 1), according to previously published protocols [20]. […] Suitable vehicle controls were also included.
(§7) The results of mRNA abundance for the targeted genes in each sample were normalized on the basis of GAPDH (Bio-Rad, Hercules, CA, USA) mRNA. Data are expressed as 2^−ΔCt, calculated using the CFX Manager software (Bio-Rad).

MDR1 = experiment: RT-qPCR gene expression in Bx-PC3 cells, MDR1
Experimental: as §6, §7

MRP1/2 [15] = experiment: ABC-mediated drug efflux assay, calcein-AM accumulation, Bx-PC3 cells; type: cell-based, human; details: 2 h pre-treatment, sesquiterpenes 10 μg/mL, MK571 1 μg/mL, vs control
Experimental: as §5

Pgp = experiment: Immunofluorescence analysis in Bx-PC3 cells, Pgp; type: cell-based, human
Experimental: as §1, §4

MRP2 [16] = experiment: Immunofluorescence analysis in Bx-PC3 cells, MRP2; type: cell-based, human
Experimental: as §1, §4

For COc1ccc(CCN(C)CCCC(C#N)(c2ccc(OC)c(OC)c2)C(C)C)cc1OC (centres unmarked) [Verapamil, verapamil hydrochloride, reference compound], which “increase of wound area” value (Bx-PC3 cells) is on record?
The value was “lowered the anti-migration effect of sorafenib”.

And the “reduction of sorafenib IC50 in the presence of the substance” value (“reduction of sorafenib IC50” below) (Mz-ChA-1 [1])?
Its value is 1.5 fold.

And the “increase of STAT3 phosphorylation at tyrosine 705” value (phospho(Tyr705)-STAT3)?
Its value is 1.1 fold.

And the “reduction of phospho(Tyr705)-STAT3 with respect to sorafenib” value (phospho(Tyr705)-STAT3)?
Its value is “lower reduction”.

And the “reduction of sorafenib IC50” value (HepG2 [2])?
The value was “approximately 3 fold”.

And the “reduction of sorafenib IC50” value (Bx-PC3 [3])?
The value was ~2 fold.

Which IC50 (Mz-ChA-1 [4]; Homo sapiens, substance alone, 4 h exposure + 72 h recovery) does the source give for C=C1CC/C=C(\C)CC[C@@H]2[C@@H]1CC2(C)C [β-Caryophyllene, β-caryophyllene] here?
Its IC50 is 62.7 µg/mL.

And the “IC50 lower with respect to sorafenib” value (Mz-ChA-1 [4])?
The value was “approximately 1.2 fold”.

And the “higher cytotoxicity with respect to β-caryophyllene oxide” value (Mz-ChA-1 [4])?
Its value is “approximately 1.5 fold”.

What about the “inhibition of cell viability” value (Mz-ChA-1 [4]; 50 µg/mL) of the same compound?
Its value is 35%.

What about the “inhibition of cell viability” value (Mz-ChA-1 [4]; 250 µg/mL) of the same compound?
Its value is 96%.

What about the CC50 [5] of the same compound?
The CC50 was 67 µg/mL.

And the “increase of calcein-AM accumulation” value (MRP1/2 [6])?
Its value is 1.3 fold.

And the “effect on sorafenib cytotoxicity in noncancerous cells” value [7]?
The value was “slight protective effects”.

What about the “increase of calcein-AM accumulation” value (MRP1/2 [8]) of the same compound?
Its value is 1.2 fold.

What about the “considered safe up to (approved as flavoring)” value [9] of the same compound?
Its value is ≤ 222 mg/kg/die.

What about the “reduction of MRP1 expression with respect to sorafenib” value (MRP1 [10]) of the same compound?
Its value is 1.8 fold.

What about the “wound area / cell migration after 72 h” value (Bx-PC3 cells; substance alone, sesquiterpenes 10 µg/mL, verapamil/MK571 1 µg/mL) of the same compound?
The value was “almost complete closure of wound area”.

What about the “increase of wound area” value (Bx-PC3 cells) of the same compound?
Its value is ~4.1 fold.

And the “reduction of sorafenib IC50” value (Mz-ChA-1 [1])?
The value was “approximately 1.7 fold”.

And the “combination index (CI) with sorafenib” value (Mz-ChA-1 [1]; CI lower than 1 = synergistic)?
The value was 0.74.

And the “increase of sorafenib cytotoxicity in combination” value (shortened to “increase of sorafenib cytotoxicity”) (Mz-ChA-1 [1]; sorafenib 10 µg/mL, verapamil/MK571 1 µg/mL or sesquiterpenes 10 µg/mL)?
Its value is 19%.

What about the “increase of sorafenib cytotoxicity” value (Mz-ChA-1 [1]; sorafenib 50 µg/mL, sesquiterpenes 10 µg/mL) of the same compound?
The value was 17%.

And the “increase of STAT3 phosphorylation at tyrosine 705” value (phospho(Tyr705)-STAT3)?
Its value is “approximately 3 fold”.

What about the “reduction of phospho(Tyr705)-STAT3 with respect to sorafenib” value (phospho(Tyr705)-STAT3) of the same compound?
The value was 2.1 fold.

What about the “reduction of MRP1 gene expression” value (MRP1 [11]) of the same compound?
Its value is 4 fold.

And the “reduction of sorafenib IC50” value (HepG2 [2])?
The value was “approximately 2.9 fold”.

What about the “combination index (CI) with sorafenib” value (HepG2 [2]; CI lower than 1 = synergistic) of the same compound?
The value was 0.47.

And the “increase of sorafenib cytotoxicity” value (HepG2 [2]; sorafenib 1 µg/mL)?
The value was 5%.

And the “increase of sorafenib cytotoxicity” value (HepG2 [2]; sorafenib 10 µg/mL)?
The value was “approximately 33%”.

And the “IC50 higher than that of sorafenib” value (HepG2 [12])?
Its value is 1.6 fold.

And the “IC50 higher than that of sorafenib” value (Bx-PC3 [13])?
Its value is “comparable”.

What about the “higher cytotoxicity with respect to β-caryophyllene oxide” value (Bx-PC3 [13]) of the same compound?
Its value is ~1.8 fold.

What about the “inhibition of cell viability” value (Bx-PC3 [13]; 50 µg/mL) of the same compound?
The value was 70%.

What about the “inhibition of cell viability” value (Bx-PC3 [13]; 250 µg/mL) of the same compound?
Its value is 95%.

What about the IC50 (Bx-PC3 [13]; Homo sapiens, BXPC-3, substance alone, 4 h exposure + 72 h recovery) of the same compound?
The IC50 was 36.3 µg/mL.

And the “reduction of MRP2 gene expression” value (MRP2 [14])?
Its value is 4 fold.

And the “increase of MDR1 gene expression with respect to control” value (MDR1; substance alone, 4 h exposure + 72 h recovery)?
The value was 2.7 fold.

What about the “downregulation of MDR1 gene with respect to sorafenib alone” value (MDR1; substance in combination with sorafenib) of the same compound?
The value was 1.9 fold.

What about the “reduction of sorafenib IC50” value (Bx-PC3 [3]) of the same compound?
The value was 5 fold.

And the “combination index (CI) with sorafenib” value (Bx-PC3 [3]; CI lower than 1 = synergistic)?
The value was 0.46.

What about the “increase of sorafenib cytotoxicity” value (Bx-PC3 [3]; sesquiterpenes 10 µg/mL, sorafenib concentration not stated (Figure 3F)) of the same compound?
The value was 56%.

And the “increase of calcein-AM accumulation” value (MRP1/2 [15])?
Its value is 1.9 fold.

What about the “effect on Pgp expression (immunofluorescence)” value (Pgp; substance alone, sorafenib and sesquiterpenes 10 µg/mL, verapamil 1 µg/mL) of the same compound?
The value was “did not affect”.

What about the “reduction of Pgp expression compared to control” value (Pgp; substance in combination with sorafenib 10 μg/mL) of the same compound?
The value was ~1.9 fold.

What about the “reduction of MRP2 expression with respect to sorafenib” value (MRP2 [16]; substance 10 µg/mL in combination with sorafenib 10 µg/mL) of the same compound?
Its value is 1.3 fold.

What about the “increase of MRP2 expression (immunofluorescence)” value (MRP2 [16]; substance alone, 10 µg/mL) of the same compound?
Its value is 1.4 fold.
